ChEMBL document CHEMBL3272025, “Conformation-activity studies of oxytocin. Effects of structural modifications at corner positions of the beta-turns on the uterotonic activity” (J Med Chem, 1977)
Bridge positions count the residues as written; N and C are the ends. Peptide text beside a SMILES is read from it.

How the values were obtained:
Gallus gallus [1] = experiment: Inhibition of vasodepressor activity in conscious chicken; assay type: functional, organism-based; details: read-out: pA2 (converted)
Rattus norvegicus [2] = experiment: Antidiuretic activity in anesthetized rat; assay type: functional, Urine
[3] = Retardation factor of the compound using BuOH-C6H6-HOAc-1.5% aqueous pyridine at ratio of 5:5:4:6 as solvent system by partition chromatography; assay type: physicochemical; details: buffer
[4] = Retardation factor of the compound using BuOH-C6H6-HOAc-1.5% aqueous pyridine at ratio of 10:15:12:18 as solvent system by partition chromatography; assay type: physicochemical; details: buffer
[5] = molecular target: T1, Oxytocin receptor (Rattus norvegicus) (UniProt P70536); experiment: Agonist activity at oxytocin receptor in virgin rat uterine horns assessed as uterotonic activity at relative to synthetic oxytocin
T1 sequence (whole entry): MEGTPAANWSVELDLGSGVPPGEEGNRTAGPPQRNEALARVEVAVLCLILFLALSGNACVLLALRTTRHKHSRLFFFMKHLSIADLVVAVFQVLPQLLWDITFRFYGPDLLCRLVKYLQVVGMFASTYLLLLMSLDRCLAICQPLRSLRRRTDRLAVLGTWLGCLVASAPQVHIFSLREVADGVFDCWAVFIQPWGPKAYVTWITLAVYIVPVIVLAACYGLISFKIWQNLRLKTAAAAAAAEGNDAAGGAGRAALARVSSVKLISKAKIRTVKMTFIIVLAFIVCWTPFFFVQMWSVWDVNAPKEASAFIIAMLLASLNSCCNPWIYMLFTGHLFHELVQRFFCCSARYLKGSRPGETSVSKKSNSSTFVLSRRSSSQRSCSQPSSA

[6] = Retardation factor of the compound using BuOH-HOAc-H2O at ratio of 4:1:1 as solvent system by thin layer chromatography; assay type: physicochemical
[7] = molecular target: T1, Oxytocin receptor (Rattus norvegicus); experiment: Agonist activity at oxytocin receptor in virgin rat uterine horns assessed as uterotonic activity at
Gallus gallus [8] = experiment: Vasodepressor activity in conscious chicken; assay type: functional
Rattus norvegicus [9] = experiment: Pressor activity in anesthetized rat; assay type: functional
[10] = Retardation factor of the compound using BuOH-pyridine-HOAc-H2O at ratio of 15:10:3:6 as solvent system by thin layer chromatography; assay type: physicochemical
[11] = Retardation factor of the compound using BuOH-pyridine-H2O at ratio of 20:10:11 as solvent system by thin layer chromatography; assay type: physicochemical

| Compound | Rf [3] | Rf [4] | Activity [5] [%] | Rf [6] | Activity [7] [U/mg] | Rf [10] | Rf [11] | Kb (Gallus gallus [1]) [nM] | Activity (Rattus norvegicus [2]) [U/mg] | Activity (Gallus gallus [8]) [U/mg] | Activity (Rattus norvegicus [9]) [U/mg] |
| --- | --- | --- | --- | --- | --- | --- | --- | --- | --- | --- | --- |
| CSCC[C@H](NC(=O)[C@@H]1CCCN1C(=O)[C@@H]1CSSC[C@H](N)C(=O)N[C@@H](Cc2ccc(O)cc2)C(=O)N[C@@H](Cc2ccccc2)C(=O)N[C@@H](Cc2ccccc2)C(=O)N[C@@H](CC(N)=O)C(=O)N1)C(=O)NCC(N)=O (H-CYFFNCPMG-NH2; disulfide 1-6) | 0.49 | 0.19 | 54 | 0.38 | – | – | – | 513 | 0.43 | – | – |
| CSCC[C@H](NC(=O)[C@@H]1CCCN1C(=O)[C@@H]1CSSC[C@H](N)C(=O)N[C@@H](Cc2ccc(O)cc2)C(=O)N[C@@H](Cc2ccccc2)C(=O)N[C@@H](CC(C)C)C(=O)N[C@@H](CC(N)=O)C(=O)N1)C(=O)NCC(N)=O (H-CYFLNCPMG-NH2; disulfide 1-6) | – | 0.17 | 66 | 0.38 | 0.62 | 0.64 | – | – | 0.33 | 1.05 | 0.92 |
| CC(C)C[C@H](NC(=O)[C@@H]1CCCN1C(=O)[C@@H]1CSSC[C@H](N)C(=O)N[C@@H](Cc2ccc(O)cc2)C(=O)N[C@@H](Cc2ccccc2)C(=O)N[C@@H](CCC(N)=O)C(=O)N[C@@H](CC(N)=O)C(=O)N1)C(=O)NCC(N)=O (H-CYFQNCPLG-NH2; disulfide 1-6) | – | – | 90 | – | 39 | – | – | – | – | – | – |

Second part, led by results:

| Rf [3] | Rf [4] | Activity [5] [%] | Rf [6] | Activity [7] [U/mg] | Rf [10] | Rf [11] | Compound | Kb (Gallus gallus [1]) [nM] | Activity (Rattus norvegicus [2]) [U/mg] | Activity (Gallus gallus [8]) [U/mg] | Activity (Rattus norvegicus [9]) [U/mg] |
| --- | --- | --- | --- | --- | --- | --- | --- | --- | --- | --- | --- |
| – | 0.26 | 75 | 0.38 | 0.75 | – | 0.61 | CC[C@H](C)[C@@H]1NC(=O)[C@H](Cc2ccc(O)cc2)NC(=O)[C@@H](N)CSSC[C@@H](C(=O)N2CCC[C@H]2C(=O)N[C@@H](CC(C)C)C(=O)NCC(N)=O)NC(=O)[C@H](CC(N)=O)NC(=O)[C@H](Cc2ccccc2)NC1=O (H-CYIFNCPLG-NH2; disulfide 1-6) | – | – | – | – |
| – | – | 81 | – | 13 | – | – | CC[C@H](C)[C@@H]1NC(=O)[C@H](Cc2ccc(O)cc2)NC(=O)[C@@H](N)CSSC[C@@H](C(=O)N2CCC[C@H]2C(=O)N[C@@H](CC(C)C)C(=O)NCC(N)=O)NC(=O)[C@H](CC(N)=O)NC(=O)[C@H](CC(C)C)NC1=O (H-CYILNCPLG-NH2; disulfide 1-6) | – | – | – | – |
